Earlier results in US20160281133A1, “STABILIZATION AND ISOLATION OF EXTRACELLULAR NUCLEIC ACIDS” (QIAGEN GMBH, priority 2013, published 2016).
Like-named read-outs stand apart in the source and are kept apart here. Where a SMILES comes first, the peptide text is derived from it. [ ]: non-standard residue; d: D form. Nle = CCCC[CH](N)C(=O)O

Assays:
caspase-1 [1] = molecular target: T1, caspase-1 (Homo sapiens, UniProt P29466); settings: cited from earlier work
T1 sequence (P29466 120-297 limits assumed): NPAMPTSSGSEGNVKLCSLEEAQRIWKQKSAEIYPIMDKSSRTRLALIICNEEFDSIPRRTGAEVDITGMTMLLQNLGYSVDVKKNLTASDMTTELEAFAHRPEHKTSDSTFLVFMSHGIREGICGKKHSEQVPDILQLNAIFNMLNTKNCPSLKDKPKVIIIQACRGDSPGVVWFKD
T1 sequence (P29466 317-404 limits assumed): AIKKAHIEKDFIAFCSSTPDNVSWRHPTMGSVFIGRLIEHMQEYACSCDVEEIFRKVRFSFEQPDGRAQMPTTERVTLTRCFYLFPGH

cathepsin L = cathepsin L (Homo sapiens, UniProt P07711); settings: cited from earlier work
calpain II = molecular target: T2, calpain II (Homo sapiens, UniProt P17655); settings: cited from earlier work
T2 sequence (P17655 1-700): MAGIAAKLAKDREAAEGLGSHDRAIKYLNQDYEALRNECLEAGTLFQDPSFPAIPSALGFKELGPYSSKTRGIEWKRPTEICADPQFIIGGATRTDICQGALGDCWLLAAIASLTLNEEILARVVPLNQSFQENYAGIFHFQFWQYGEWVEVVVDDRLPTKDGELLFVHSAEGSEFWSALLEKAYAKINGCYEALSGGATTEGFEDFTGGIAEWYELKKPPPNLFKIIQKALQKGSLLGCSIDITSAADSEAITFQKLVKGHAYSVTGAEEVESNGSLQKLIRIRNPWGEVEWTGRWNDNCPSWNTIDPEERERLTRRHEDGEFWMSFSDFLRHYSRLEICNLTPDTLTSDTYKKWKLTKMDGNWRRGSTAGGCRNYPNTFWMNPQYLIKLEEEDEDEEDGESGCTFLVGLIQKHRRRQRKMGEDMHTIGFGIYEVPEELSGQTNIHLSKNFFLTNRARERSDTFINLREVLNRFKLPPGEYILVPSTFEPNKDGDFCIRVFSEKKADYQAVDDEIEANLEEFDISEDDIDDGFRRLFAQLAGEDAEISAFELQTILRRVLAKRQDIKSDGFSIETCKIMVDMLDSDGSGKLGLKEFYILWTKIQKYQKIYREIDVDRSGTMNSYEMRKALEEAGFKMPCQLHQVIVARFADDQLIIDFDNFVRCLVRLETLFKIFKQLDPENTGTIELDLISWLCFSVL
T2 sequence (P04632 1-268 partner): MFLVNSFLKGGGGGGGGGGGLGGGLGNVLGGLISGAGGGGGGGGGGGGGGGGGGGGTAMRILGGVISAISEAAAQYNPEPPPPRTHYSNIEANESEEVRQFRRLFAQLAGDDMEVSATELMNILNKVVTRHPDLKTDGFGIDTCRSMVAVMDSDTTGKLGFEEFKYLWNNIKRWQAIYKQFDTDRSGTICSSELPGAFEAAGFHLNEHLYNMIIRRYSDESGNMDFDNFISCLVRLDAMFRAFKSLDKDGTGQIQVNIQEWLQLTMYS

calpain I = calpain I (Homo sapiens, UniProt P07384); settings: cited from earlier work
Stat3 = Stat3 (Homo sapiens, UniProt P40763); settings: read-out: DB50 (concentration of peptide at which DNA-binding activity is inhibited by 50%); cited from earlier work
[2] = tested on: various other serine proteases; settings: cited from earlier work
[3] = molecular target: T3, Omi/HtrA2 (His-Omi134-458) (Homo sapiens, UniProt O43464); settings: for His-Omi134-458; cited from earlier work
T3 construct: His-Omi134-458; His (N)

caspase-8 = caspase-8 (Homo sapiens, UniProt Q14790); settings: cited from earlier work
anthrax lethal factor = anthrax lethal factor (Bacillus anthracis, UniProt P15917); settings: cited from earlier work
Bax-mediated apoptosis = settings: functions as effectively as Caspase Inhibitor VI (Z-VAD-FMK); cited from earlier work
myocardial infarct size = settings: during reperfusion; cited from earlier work
caspase-3 = molecular target: T4, caspase-3 (Homo sapiens, UniProt P42574); settings: cited from earlier work
T4 sequence (P42574 29-175 limits assumed): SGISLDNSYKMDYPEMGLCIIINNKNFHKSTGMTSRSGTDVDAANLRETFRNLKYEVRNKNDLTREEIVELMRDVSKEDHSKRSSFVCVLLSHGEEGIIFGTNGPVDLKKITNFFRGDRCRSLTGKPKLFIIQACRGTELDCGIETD
T4 sequence (P42574 176-277 limits assumed): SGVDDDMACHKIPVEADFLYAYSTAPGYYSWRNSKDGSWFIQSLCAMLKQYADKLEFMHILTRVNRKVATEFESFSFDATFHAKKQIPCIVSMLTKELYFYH

caspase-2 = molecular target: T5, caspase-2 (Homo sapiens, UniProt P42575); settings: cited from earlier work
T5 sequence (P42575 170-325 limits assumed): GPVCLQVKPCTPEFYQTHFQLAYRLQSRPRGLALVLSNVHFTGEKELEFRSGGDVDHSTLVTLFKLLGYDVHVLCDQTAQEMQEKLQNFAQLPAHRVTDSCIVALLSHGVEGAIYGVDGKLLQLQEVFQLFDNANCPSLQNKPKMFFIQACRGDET
T5 sequence (P42575 348-452 limits assumed): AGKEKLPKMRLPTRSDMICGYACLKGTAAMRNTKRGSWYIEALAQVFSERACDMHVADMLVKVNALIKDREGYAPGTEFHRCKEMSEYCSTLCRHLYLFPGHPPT

caspase-7 = molecular target: T6, caspase-7 (Homo sapiens, UniProt P55210); settings: cited from earlier work
T6 sequence (P55210 24-198 limits assumed): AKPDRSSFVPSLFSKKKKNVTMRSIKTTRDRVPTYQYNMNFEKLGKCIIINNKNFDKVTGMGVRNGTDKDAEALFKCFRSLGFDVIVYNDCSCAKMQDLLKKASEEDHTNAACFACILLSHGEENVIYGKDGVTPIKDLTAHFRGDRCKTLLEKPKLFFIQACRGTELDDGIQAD
T6 sequence (P55210 207-303 limits assumed): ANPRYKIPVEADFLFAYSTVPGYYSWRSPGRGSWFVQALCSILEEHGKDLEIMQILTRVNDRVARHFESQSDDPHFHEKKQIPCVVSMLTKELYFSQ

[4] = in neuron culture medium at 37° C.; cited from earlier work
[5] = tested on: etoposide-induced cortical neuron death; settings: cited from earlier work
COX-1 = COX-1 (Homo sapiens, UniProt P23219); settings: cited from earlier work
COX-2 = settings: cited from earlier work
caspase-1 [6] = molecular target: T1, caspase-1; settings: cited from earlier work; remark: listed apart in the source
caspase-10 = molecular target: T7, caspase-10 (Homo sapiens, UniProt Q92851); settings: value type not repeated in the cell; cited from earlier work
T7 sequence (Q92851 220-415 limits assumed): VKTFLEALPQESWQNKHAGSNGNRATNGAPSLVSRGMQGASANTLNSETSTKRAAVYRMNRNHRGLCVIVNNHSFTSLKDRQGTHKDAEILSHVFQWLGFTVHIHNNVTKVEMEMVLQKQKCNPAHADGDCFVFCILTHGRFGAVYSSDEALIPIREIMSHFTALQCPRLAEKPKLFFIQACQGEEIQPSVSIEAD
T7 sequence (Q92851 416-521 limits assumed): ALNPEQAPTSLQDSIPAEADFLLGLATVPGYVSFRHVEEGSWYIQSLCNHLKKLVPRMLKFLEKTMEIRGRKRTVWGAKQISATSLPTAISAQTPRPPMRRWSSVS

pancreatic duct cells = settings: cited from earlier work
[7] = tested on: TNF-induced inhibition of DNA synthesis; settings: cited from earlier work
PI3K = settings: cited from earlier work
proliferation = settings: cited from earlier work
LDH % release = settings: cited from earlier work
[8] = tested on: TNF-induced PMN-EC adhesion; settings: cited from earlier work
PKC = settings: cited from earlier work

Sequence of cathepsin L (P07711 114-333, species assumed): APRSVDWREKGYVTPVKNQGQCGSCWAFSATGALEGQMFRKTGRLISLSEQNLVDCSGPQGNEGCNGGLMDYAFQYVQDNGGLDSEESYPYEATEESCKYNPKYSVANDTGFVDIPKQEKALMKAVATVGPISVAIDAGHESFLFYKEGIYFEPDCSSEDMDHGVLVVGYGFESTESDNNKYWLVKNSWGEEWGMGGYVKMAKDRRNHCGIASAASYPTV
T3 sequence (O43464 134-458): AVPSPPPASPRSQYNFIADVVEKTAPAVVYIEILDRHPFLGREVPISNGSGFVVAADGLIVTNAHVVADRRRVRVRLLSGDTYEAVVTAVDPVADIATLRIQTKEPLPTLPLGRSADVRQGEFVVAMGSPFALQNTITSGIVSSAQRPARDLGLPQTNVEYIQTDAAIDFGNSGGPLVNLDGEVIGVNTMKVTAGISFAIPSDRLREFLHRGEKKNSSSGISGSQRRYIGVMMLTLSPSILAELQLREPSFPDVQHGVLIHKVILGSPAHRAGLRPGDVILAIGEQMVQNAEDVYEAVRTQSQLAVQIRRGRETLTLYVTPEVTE
Sequence of caspase-8 (Q14790 217-374 limits assumed, species assumed): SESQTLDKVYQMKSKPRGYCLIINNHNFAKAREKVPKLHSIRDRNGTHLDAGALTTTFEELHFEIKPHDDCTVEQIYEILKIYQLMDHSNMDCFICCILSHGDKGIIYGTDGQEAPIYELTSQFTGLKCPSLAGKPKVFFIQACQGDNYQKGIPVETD
Sequence of caspase-8 (Q14790 385-479 limits assumed, species assumed): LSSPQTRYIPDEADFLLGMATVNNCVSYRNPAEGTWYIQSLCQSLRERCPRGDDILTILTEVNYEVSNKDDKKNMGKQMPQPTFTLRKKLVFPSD
Sequence of Stat3 (P40763 whole entry, species assumed): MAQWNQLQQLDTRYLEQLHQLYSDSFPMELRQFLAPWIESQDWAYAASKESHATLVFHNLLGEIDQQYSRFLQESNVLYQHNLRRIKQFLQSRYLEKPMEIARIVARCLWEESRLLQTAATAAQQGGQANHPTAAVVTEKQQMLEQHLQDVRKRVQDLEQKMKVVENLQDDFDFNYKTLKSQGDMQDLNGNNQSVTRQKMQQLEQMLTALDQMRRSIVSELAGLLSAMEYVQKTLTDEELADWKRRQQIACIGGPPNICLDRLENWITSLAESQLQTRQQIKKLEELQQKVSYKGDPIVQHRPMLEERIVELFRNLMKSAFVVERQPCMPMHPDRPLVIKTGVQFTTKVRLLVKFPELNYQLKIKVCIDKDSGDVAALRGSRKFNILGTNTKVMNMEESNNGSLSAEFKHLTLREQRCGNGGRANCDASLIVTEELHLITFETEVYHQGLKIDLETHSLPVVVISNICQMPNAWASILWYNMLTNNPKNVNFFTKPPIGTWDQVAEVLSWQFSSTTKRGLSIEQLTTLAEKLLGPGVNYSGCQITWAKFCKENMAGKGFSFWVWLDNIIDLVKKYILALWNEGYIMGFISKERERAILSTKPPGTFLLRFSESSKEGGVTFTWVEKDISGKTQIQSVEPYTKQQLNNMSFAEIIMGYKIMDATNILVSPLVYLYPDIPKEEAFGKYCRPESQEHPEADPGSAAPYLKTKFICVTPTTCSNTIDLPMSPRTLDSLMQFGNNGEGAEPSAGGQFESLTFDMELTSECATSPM
Sequence of COX-1 (P23219 24-599): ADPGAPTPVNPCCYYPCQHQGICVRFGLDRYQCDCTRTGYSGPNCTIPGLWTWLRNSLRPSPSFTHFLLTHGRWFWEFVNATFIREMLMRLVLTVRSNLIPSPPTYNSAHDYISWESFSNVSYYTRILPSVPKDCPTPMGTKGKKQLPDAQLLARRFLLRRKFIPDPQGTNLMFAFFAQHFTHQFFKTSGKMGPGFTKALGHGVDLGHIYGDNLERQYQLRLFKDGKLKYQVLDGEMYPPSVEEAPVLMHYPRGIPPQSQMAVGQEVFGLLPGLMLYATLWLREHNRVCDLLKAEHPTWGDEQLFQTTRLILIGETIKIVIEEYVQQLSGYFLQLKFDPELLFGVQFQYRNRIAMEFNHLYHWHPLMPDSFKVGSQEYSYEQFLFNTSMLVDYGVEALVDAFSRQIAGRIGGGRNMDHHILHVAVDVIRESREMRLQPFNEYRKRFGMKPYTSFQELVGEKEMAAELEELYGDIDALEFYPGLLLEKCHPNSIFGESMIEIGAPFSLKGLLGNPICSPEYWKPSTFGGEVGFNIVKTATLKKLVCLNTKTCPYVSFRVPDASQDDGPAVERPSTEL
Sequence of calpain I (P07384 whole entry, one chain of several): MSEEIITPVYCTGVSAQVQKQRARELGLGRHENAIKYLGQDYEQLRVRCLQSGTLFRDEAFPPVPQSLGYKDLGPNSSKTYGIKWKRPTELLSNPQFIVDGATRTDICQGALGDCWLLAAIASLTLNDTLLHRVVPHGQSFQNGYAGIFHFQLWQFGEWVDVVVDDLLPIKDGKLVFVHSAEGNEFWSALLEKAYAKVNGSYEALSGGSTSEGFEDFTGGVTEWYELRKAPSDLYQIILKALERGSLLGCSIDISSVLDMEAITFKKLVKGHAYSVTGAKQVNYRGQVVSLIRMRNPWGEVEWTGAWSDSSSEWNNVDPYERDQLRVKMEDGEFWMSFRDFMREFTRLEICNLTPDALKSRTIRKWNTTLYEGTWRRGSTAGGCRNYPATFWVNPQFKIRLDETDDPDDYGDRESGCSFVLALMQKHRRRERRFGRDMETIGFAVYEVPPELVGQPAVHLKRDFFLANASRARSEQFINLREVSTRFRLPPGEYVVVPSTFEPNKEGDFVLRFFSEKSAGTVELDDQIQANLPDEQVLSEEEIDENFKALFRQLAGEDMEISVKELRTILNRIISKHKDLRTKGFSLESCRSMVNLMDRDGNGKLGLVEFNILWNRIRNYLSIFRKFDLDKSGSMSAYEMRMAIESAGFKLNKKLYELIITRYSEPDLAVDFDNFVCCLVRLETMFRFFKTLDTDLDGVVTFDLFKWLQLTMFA
Sequence of anthrax lethal factor (P15917 34-809 limits assumed): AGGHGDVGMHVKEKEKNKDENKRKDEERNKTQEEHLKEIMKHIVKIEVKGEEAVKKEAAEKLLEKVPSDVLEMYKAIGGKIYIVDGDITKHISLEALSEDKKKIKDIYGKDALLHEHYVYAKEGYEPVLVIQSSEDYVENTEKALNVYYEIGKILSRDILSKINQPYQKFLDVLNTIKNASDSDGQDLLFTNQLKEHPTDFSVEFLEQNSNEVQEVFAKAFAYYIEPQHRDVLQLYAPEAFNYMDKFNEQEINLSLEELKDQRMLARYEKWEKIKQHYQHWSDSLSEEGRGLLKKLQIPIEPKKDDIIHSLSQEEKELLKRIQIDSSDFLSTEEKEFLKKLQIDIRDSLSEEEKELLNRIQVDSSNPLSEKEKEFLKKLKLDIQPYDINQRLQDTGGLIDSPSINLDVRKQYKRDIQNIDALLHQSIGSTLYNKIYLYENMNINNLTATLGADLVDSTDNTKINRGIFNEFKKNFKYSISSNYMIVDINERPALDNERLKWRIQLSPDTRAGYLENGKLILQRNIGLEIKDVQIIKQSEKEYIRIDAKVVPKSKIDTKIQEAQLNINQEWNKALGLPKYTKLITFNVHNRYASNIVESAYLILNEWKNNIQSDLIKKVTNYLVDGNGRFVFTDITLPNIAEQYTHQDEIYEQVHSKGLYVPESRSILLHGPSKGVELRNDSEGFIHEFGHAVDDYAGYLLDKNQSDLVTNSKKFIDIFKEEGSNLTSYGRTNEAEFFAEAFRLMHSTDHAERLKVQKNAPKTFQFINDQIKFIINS

Ac-Tyr-Val-Ala-Asp-CHO [Caspase-1 Inhibitor I]
Ki (caspase-1 [1]): 0.2 nM

CCCCC(C=O)NC(=O)C(CC(C)C)NC(=O)C(CC(C)C)NC(C)=O (stereo not drawn) [Ac-Leu-Leu-Nle-al] (Ac-Leu-Leu-[Nle]-aldehyde; configuration not given here)
Ki (cathepsin L): 0.5 nM | Ki (calpain II): 150 nM | Ki (calpain I): 190 nM

Ac-Pro-Tyr(PO3H2)-Leu-Lys-Thr-Lys-OH (PYLKTK; HELM PEPTIDE1{[ac].P.[O=C([C@H](Cc1ccc(OP(=O)(O)O)cc1)N[*:1])[*:2]].L.K.T.K}$$$$V2.0; SMILES CC(=O)N1CCC[C@H]1C(=O)N[C@@H](Cc1ccc(OP(=O)(O)O)cc1)C(=O)N[C@@H](CC(C)C)C(=O)N[C@@H](CCCCN)C(=O)N[C@H](C(=O)N[C@@H](CCCCN)C(=O)O)[C@@H](C)O) [STAT3 Inhibitor Peptide]
IC50 (Stat3): 235000 nM

O=C1C(=Cc2ccc(-c3ccccc3[N+](=O)[O-])o2)C(=O)N(c2ccccc2)C(=S)N1c1ccccc1 [Omi/HtrA2 Protease Inhibitor, Ucf-101]
IC50 [2]: ≥ 200000 nM | IC50 [3]: 9500 nM

FC(F)(F)c1cccc(-c2csc(C3COc4ccccc4O3)n2)c1 (stereo not shown) [Caspase Inhibitor X]
Ki (caspase-8): 2700 nM | effect on activity of anthrax lethal factor (anthrax lethal factor): assisted cleavage of BID, a proapoptotic protein. Weakly affects

H-Val-Pro-Met-Leu-Lys-OH (H-VPMLK-OH) [Bax-Inhibiting Peptide, V5]
concentration effective for Bax-mediated apoptosis (Bax-mediated apoptosis): mediated apoptosis (~50-200 μM). Also effectively blocks caspase-

Ac-Leu-Glu-His-Asp-CMK (LEHD; HELM PEPTIDE1{[ac].L.E.H.D.[ClC[*:1]]}$$$$V2.0; SMILES CC(=O)N[C@@H](CC(C)C)C(=O)N[C@@H](CCC(=O)O)C(=O)N[C@@H](Cc1c[nH]cn1)C(=O)N[C@@H](CC(=O)O)C(=O)CCl) [Caspase-9 Inhibitor III]
concentration reported to reduce myocardial infarct size (myocardial infarct size): myocardial infarct size during reperfusion (~70 nM).

Ac-Val-Asp-Val-Ala-Asp-CHO (Ac-VDVAD-aldehyde) [Caspase Inhibitor VIII]
Ki (caspase-3): 1 nM | Ki (caspase-2): 3.5 nM | Ki (caspase-7): 7.5 nM

O=[N+]([O-])c1ccc(-c2cn3c4c(sc3n2)CCCC4)cc1 [Pifithrin-α, p-Nitro, Cyclic]
longer half-life than Pifithrin-α [4]: 50% | t½ [4]: 6 h | higher potency than Pifithrin-α [5]: A cell-permeable p53 inhibitor that exhibits 10-fold higher potency

O=c1c(O)c(-c2ccc(O)cc2)oc2cc(O)cc(O)c12 [Kaempferol]
IC50 (COX-1): 180000 nM | IC50 (COX-2): < 15000 nM

Ac-Ile-Glu-Thr-Asp-CHO (Ac-IETD-aldehyde) [Granzyme B Inhibitor II]
Ki (caspase-1 [6]): < 6 nM | Ki (caspase-10): 27 nM

CCN1C(=O)C=CC1=O [N-Ethylmaleimide]
IC50 (pancreatic duct cells): 22000 nM

O=c1c(O)c(-c2ccc(O)c(O)c2)oc2cc(O)cc(O)c12 [Quercetin(Sophoretin), Quercetin]
IC50 [7]: 6100 nM | IC50 (PI3K): 3800 nM | IC50 (proliferation): 11400 nM | IC50 (LDH % release): 800 nM | IC50 [8]: 16700 nM | IC50 (PKC): 15 μg/ml. It strongly abrogated PI3K and Src kinases, mildly
